{
  "source": "patent US20070259945A1",
  "about": "“METHOD FOR TREATING PAIN” (ALLERGAN, INC., priority 2005, published 2007)",
  "key": {"[1]": {"tested_on": "nociceptive response to formalin injected into the rat paw", "experiment": "Formalin test, injection into the periaqueductal grey (PAG)", "type": "in vivo", "from_the_text": "(§1) The compounds of formula I are novel agents against […], acting by enhancing endocannabinoid levels (via FAAH inhibition) and at the same time by antagonizing TRPV1."}, "[2]": {"target": "fatty acid amide hydrolase (FAAH) (Rattus norvegicus, UniProt P97612)", "sequence (P97612 whole entry)": "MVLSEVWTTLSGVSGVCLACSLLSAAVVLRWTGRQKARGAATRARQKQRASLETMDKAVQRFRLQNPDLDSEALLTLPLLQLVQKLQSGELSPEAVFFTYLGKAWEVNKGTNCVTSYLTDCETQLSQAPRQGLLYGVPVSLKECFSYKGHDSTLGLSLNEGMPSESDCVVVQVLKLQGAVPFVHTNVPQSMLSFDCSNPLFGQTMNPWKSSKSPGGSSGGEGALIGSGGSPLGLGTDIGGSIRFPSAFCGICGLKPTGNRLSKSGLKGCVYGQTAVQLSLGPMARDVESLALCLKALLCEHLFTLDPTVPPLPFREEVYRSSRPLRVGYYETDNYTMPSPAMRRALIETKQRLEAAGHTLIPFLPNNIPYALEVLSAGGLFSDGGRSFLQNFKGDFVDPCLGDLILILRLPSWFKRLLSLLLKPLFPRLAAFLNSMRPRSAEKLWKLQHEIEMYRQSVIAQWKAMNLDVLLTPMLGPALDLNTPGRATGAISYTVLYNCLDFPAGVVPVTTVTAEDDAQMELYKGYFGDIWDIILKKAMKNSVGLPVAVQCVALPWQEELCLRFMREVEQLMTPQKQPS"}, "TRPV1 channels": {"target": "TRPV1 channels (Homo sapiens, UniProt Q8NER1)", "sequence (Q8NER1 whole entry)": "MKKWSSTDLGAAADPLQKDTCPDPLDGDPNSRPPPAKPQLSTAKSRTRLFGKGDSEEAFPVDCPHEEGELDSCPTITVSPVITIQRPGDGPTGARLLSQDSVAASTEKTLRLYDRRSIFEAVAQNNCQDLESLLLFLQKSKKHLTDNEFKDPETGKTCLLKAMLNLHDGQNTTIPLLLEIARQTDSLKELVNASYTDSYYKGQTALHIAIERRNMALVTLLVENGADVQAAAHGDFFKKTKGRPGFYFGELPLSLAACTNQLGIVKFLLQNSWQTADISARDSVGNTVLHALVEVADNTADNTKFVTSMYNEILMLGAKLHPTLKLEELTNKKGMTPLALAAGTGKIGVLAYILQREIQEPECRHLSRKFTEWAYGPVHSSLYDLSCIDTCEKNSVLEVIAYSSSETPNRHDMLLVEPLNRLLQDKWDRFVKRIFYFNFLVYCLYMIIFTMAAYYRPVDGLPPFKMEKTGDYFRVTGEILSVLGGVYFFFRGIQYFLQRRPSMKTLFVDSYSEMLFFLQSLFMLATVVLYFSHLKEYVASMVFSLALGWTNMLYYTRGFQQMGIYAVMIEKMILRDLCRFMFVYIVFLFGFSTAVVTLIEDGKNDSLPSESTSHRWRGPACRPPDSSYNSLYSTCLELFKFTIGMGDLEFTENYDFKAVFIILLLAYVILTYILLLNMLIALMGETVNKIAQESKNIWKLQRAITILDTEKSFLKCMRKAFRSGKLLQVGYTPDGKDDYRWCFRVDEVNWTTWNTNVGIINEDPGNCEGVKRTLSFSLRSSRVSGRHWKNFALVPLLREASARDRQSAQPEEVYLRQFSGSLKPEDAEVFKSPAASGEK", "experiment": "Blocking of TRPV1 channel activation by capsaicin", "type": "cell-based", "details": "capsaicin 100 nM; FIG. 1A; read-out: IC50 against capsaicin"}, "[3]": {"tested_on": "nocifensive response to formalin", "experiment": "Formalin test, injection into the paw", "type": "in vivo", "details": "injected into the paw; counteracted by AM251 and occluded by capsazepine", "from_the_text": "as §1"}, "anandamide levels": {"tested_on": "anandamide levels", "experiment": "Anandamide levels in the PAG after intra-PAG injection", "type": "in vivo", "details": "rat, 4 μg/rat intra-PAG, measured 20 min following injection", "from_the_text": "as §1"}},
  "data": [
    {"molecule": "CCCCCC=CCC=CCC=CCC=CCCCC(=O)NCCc1c[nH]c2ccc(O)cc12", "note": "[AA-5-HT, N-arachidonoyl-serotonin]", "values": [
      {"measurement": "nociceptive response to formalin", "setting": "[1]; 4 μg/rat injected directly into PAG", "value": "potently inhibits both phases"},
      {"measurement": "anti-hyperalgesic effect in presence of CB1 receptor antagonist AM251", "setting": "[1]; intra-PAG, with AM251 (nmol/rat)", "value": "counteracted"},
      {"measurement": "anti-hyperalgesic effect in presence of TRPV1 antagonist capsazepine", "setting": "[1]; intra-PAG, with capsazepine 6 nmol/rat", "value": "occluded"},
      {"measurement": "type of FAAH inhibition", "setting": "[2]", "value": "mixed inhibitors"},
      {"measurement": "IC50", "setting": "TRPV1 channels", "value": 130, "unit": "nM"},
      {"measurement": "nocifensive response to formalin", "setting": "[3]", "value": "selectively block the 2nd, inflammatory phase"},
      {"measurement": "anandamide levels in the PAG", "setting": "anandamide levels", "value": "elevated"}
    ]}
  ]
}
